Converted amounts (≈) assume the structure as drawn.
Test system: wheat crown rot
Experiment: indoor toxicity test (growth rate method)
Type: cell-based
Settings: toxicity to wheat crown rot
Protocol: The method of combining indoor toxicity test and field experiment is adopted.
First of all, co-toxicity coefficients of the complex pesticide of different proportions to wheat crown rot are obtained through indoor toxicity test (growth rate method); and then, the control effect is determined through field efficacy test, and the formula proportion and optimal application amount of the complex pesticide are determined.

Row | SMILES | EC50 [µg/mL]
1 | C=CCOC(Cn1ccnc1)c1ccc(Cl)cc1Cl (centres unmarked) [Imazalil (B), Imazalil] | 0.175 (≈ 0.589 µM)
2 | OC(Cc1ccccc1Cl)(Cn1nc[nH]c1=S)C1(Cl)CC1 (centres unmarked) [Prothioconazole (A), Prothioconazole] | 1.37 (≈ 3.98 µM)
